Assay results reported in patent US11103523B2, “Self-assembled brush block copolymer-nanoparticles for drug delivery” (UNIVERSITY OF CONNECTICUT, priority 2013, dated 2021).

Legend:
[1] = Tissue distribution of DOX in A549 tumor-bearing SCID mice; assay type: in vivo; conditions: 24 h after i.v. 2.5 mg/kg equivalent DOX
Procedure: For the tissue distribution study, tumor-bearing severe combined immunodeficient (SCID) between 6 and 8 weeks-old mice were inoculated with 0.1 mL PBS containing 2×10^6 human lung cancer cells (A549) into the right flank. […] Twenty four hours after injection, mice were sacrificed for blood and organ collection including tumor, liver, spleen, kidney, lung, and heart. Tissues were then weighed and homogenized in the lysis buffer (0.1 M Tris-HCl, 2 mM EDTA, 0.1% Triton X-100) using a probe sonicator (Qsonica LLC, CT). The lysate of each tissue was centrifuged at 14,000 rpm for 20 min at 4° C. The blood was centrifuged at 3000 rpm for 10 min at 4° C.

HeLa cells [2] = test: Cytotoxicity in HeLa cells, MTT; conditions: all DOX concentrations (1-50 μg/mL), 24 h
Procedure: HeLa cells (7500 cells/well) were seeded on 96-well plates and cultured in 200 μL of DMEM supplemented with 10% FBS, 1% antibiotics, and 1% L-glutamine for 24 h at 37° C. and 5% CO2. After incubation, various concentrations of the blank nanoparticles (0.2-1 mg/mL), DOX-NPs, and free DOX (1-50 μg/mL of DOX equivalents) dissolved in DMEM without supplements were added. After 24 h of incubation with free DOX and DOX-NPs, and 48 h with blank nanoparticles, cytotoxicity was determined using 3-[4,5-dimethylthiazol-2-yl]-3,5-diphenyltetrazolium bromide dye (MTT dye, final concentration of 0.5 mg/mL) uptake at 540 nm on a microplate reader (Tecan group Ltd., Mannedorf, Switzerland).

HeLa cells [3] = test: Intracellular uptake in HeLa cells (confocal microscopy and flow cytometry); assay type: cell-based, human; conditions: 25 μg/mL DOX equivalents
Procedure: To observe the cellular uptake, HeLa cells were seeded at a density of 1.0×10^5 cells/well in an 8-well chamber of a Lab-Tek II chamber slide and pre-incubated for 24 h at 37° C. and 5% CO2. Serum-free DMEM containing free DOX and DOX-NPs at equivalent doses (25 μg/mL) was added to each well, followed by incubation for 2 h at 37° C. The cells were then rinsed with PBS, stained with 10 μM Draq5 and fixed with 4% formaldehyde solution for 10 min. Cover glasses were then placed on glass slides. The cellular uptake of free DOX and DOX-NPs was imaged by confocal laser scanning microscopy (Leica, England) at an excitation wavelength of 488 nm for DOX and 633 nm for Draq5.
To quantify cellular uptake, HeLa cells (5×10^5 cells/well) in 0.5 mL were grown on a 24-well plate at 37° C. in a humidified atmosphere of 5% CO2 for 24 h. Serum-free DMEM containing free DOX and DOX-NPs at equivalent doses (25 μg/mL) was added to the cells which were subsequently incubated for 2 h. The cells were then washed three times with PBS, harvested by trypsinization and transferred into Fluorescence Activated Cell Sorter (FACS) tubes. All samples were analyzed by flow cytometry (FACSCalibur, BD Biosciences, San Jose, Calif.) to determine cellular internalization. Fluorescence measurements of intracellular DOX were performed in the FL2 channel.

A549 cells = test: Antitumor activity and systemic toxicity in SCID mice bearing subcutaneous A549 tumors; assay type: in vivo
Procedure: The antitumor efficacy of DOX and DOX-NPs was evaluated in SCID mice inoculated subcutaneously in the right flank with 0.1 mL PBS containing 2×10^6 A549 cells. When the tumors grew to approximately 20-30 mm^3 (9 days after tumor implantation), the mice were randomly divided into three groups (n=5-6), and this day was designated as day 0. The mice were injected intravenously twice a week via tail vein with saline (control), free DOX and DOX-NPs (100 μL) at 2.5 mg/kg of equivalent DOX. Antitumor activity was evaluated in terms of tumor volume which was calculated using the following equation: Tumor volume (mm^3)=width^2×length/2. The body weight was measured simultaneously as an indicator of the systemic toxicity.

[4] = 2.5 mg/kg equivalent DOX, tumor-bearing SCID mice

In the case of `COc1cccc2c1C(=O)c1c(O)c3c(c(O)c1C2=O)C[C@@](O)(C(=O)CO)C[C@@H]3O[C@H]1C[C@H](N)[C@H](O)[C@H](C)O1` [free DOX, doxorubicin], the “tissue with greatest / lowest concentration of DOX” value [1] is reported as “greatest in the liver and lowest in the tumor”, the cytotoxicity comparison (HeLa cells [2]) is reported as “significantly higher cytotoxicity than DOX-NPs” and the “mean fluorescence intensity (flow cytometry)” value (HeLa cells [3]; 2 h) is reported as “greater fluorescence intensity than those treated with DOX-NPs”. The “intracellular distribution of DOX fluorescence (CLSM)” value (HeLa cells [3]; 2 h of incubation) was “strong red color in the nuclei”, the “effect on tumor growth” value (A549 cells; 2.5 mg/kg equivalent DOX i.v. twice a week) was “tumor growth was inhibited” and the “decrease in body weight” value (A549 cells; [4]) was 28.1±1.2%. The survival (A549 cells; [4]) was “death of all mice within 11 days”.
